Source: US10226453B2, “3-(1H-indol-2-yl)-1H-pyrazolo[4,3-B]pyridines and therapeutic uses thereof” (Samumed, LLC, priority 2015, dated 2019)

Key:
Assay type in all cases: cell-based
IL-6 (THP-1 cells) = test: IL-6 inhibition in LPS-stimulated THP-1 human monocyte cells (HTRF); details: LPS 500 ng/mL, 22 hours, IL6 HTRF
Protocol: Human monocyte cell line (THP-1 cells; Catalog # TIB-202, ATCC, Manassas, Va.) were cultured in Roswell Park Memorial Institute (RPMI) 1640 Medium (Catalog #21870-100, Buffalo, N.Y.) with 1% L-glutamine, 1% HEPES, 1% Sodium Pyruvate, 2% Sodium Bicarbonate supplemented with 100 units/mL penicillin, 50 μg/mL streptomycin, 2-mercaptoethanol (0.05 mM) [basal medium] and 10% fetal bovine serum (Catalog #16140089, Life Technologies, Carlsbad, Calif.) at 37° C. and 5% CO2.
THP-1 cells were cultured in basal media with 1% FBS for 24 hours before the start of the assay. Each compound was dissolved in DMSO as a 10 mM stock and used to prepare compound source plates. Serial dilution (1:3, 10-point dose-response curves starting from 10 μM) and compound transfer was performed using the ECHO 550 (Labcyte, Sunnyvale, Calif.) into 384-well white low volume assay plates (Greiner Bio-One) with appropriate DMSO backfill for a final DMSO concentration of 0.1%. THP-1 cells were plated at 5000 cells/well in the 384-well plates and incubated at 37° C. for 2 h. 500 ng/mL of LPS was added after 2 hours and cells were incubated for another 22 hours at 37° C. Plates were spun in a centrifuge for 1 minute at […] and a mixture of anti-IL6 XL665, and anti-IL6 Cryptate diluted in reconstitution buffer (Cisbio Inc.) was added to each well. Following incubation for 3 hrs at room temperature, Homogeneous Time-Resolved Fluorescence (HTRF) was measured using the Envision (Perkin Elmer) at 665 nm and […]. The ratio of fluorescence at 665 nm to 620 nm was used as a readout for IL6 quantification. All samples were processed in duplicate. Readings were normalized to DMSO treated cells and normalized activities were utilized for EC50 calculations using the dose-response log (inhibitor) vs. response-variable slope (four parameters) nonlinear regression feature available in GraphPad Prism 5.0 (or Dotmatics). For EC50 of >10 μM, the percent inhibition at 10 μM is provided.

[1] = system: primary human fibroblasts derived from IPF patients (LL29 cells) treated with TGF-β1; test: Inhibition of the fibrotic process: αSMA staining in TGF-β1 treated primary human fibroblasts from IPF patients (LL29 cells); details: Fibroblast, 96 h, TGF-β1 20 ng/mL, 4 days, % αSMA positive cells
Source text: Representative compounds were screened using primary human fibroblasts (derived from IPF patients) treated with TGF-β1 to determine their ability to inhibit the fibrotic process.
Primary human fibroblasts derived from IPF patients (LL29 cells) [^1Xiaoqiu Liu, et. al., “Fibrotic Lung Fibroblasts Show Blunted Inhibition by cAMP Due to Deficient cAMP Response Element-Binding Protein Phosphorylation”, Journal of Pharmacology and Experimental Therapeutics (2005), 315(2), 678-687; ^2Watts, K. L., et. al., “RhoA signaling modulates cyclin D1 expression in human lung fibroblasts; implications for idiopathic pulmonary fibrosis”, Respiratory Research (2006), 7(1), 88] were obtained from American Type Culture Collection (ATCC) and expanded in F12 medium supplemented with 15% Fetal Bovine Serum and Penicillin/Streptomycin.
Each compound was dissolved in DMSO as a 10 mM stock and used to prepare compound source plates. Serial dilution (1:2, 11-point dose-response curves from 10 μM to 1.87 nM) and compound transfer was performed using the ECHO 550 (Labcyte, Sunnyvale, Calif.) into 384-well clear bottom assay plates (Greiner Bio-One) with appropriate DMSO backfill for a final DMSO concentration of 0.1%. LL29 cells are plated at 1,500 cells/well in 80 μL/well F12 medium supplemented with 1% Fetal Bovine Serum. One hour after addition of the cells, TGF-β1 (Peprotech; 20 ng/mL) was added to the plates to induce fibrosis (ref. 1 and 2 above). Wells treated with TGF-β1 and containing DMSO were used as controls. Cells were incubated at 37° C. and 5% CO2 for 4 days. Following incubation for 4 days, SYTOX green nucleic acid stain (Life Technologies [Thermo Fisher Scientific]) was added to the wells at a final concentration of 1 μM and incubated at room temperature for 30 min. Cells were then fixed using 4% formaldehyde (Electron Microscopy Sciences), washed 3 times with PBS followed by blocking and permeabilization using 3% Bovine Serum Albumin (BSA; Sigma) and 0.3% Triton X-100 (Sigma) in PBS. Cells were then stained with antibody specific to α-smooth muscle actin (αSMA; Abcam) (ref. 1 and 2 above) in 3% Bovine Serum Albumin (BSA; Sigma) and 0.3% Triton X-100 (Sigma) in PBS, and incubated overnight at 4° C. Cells were then washed 3 times with PBS, followed by incubation with Alexa Flor-647 conjugated secondary antibody (Life Technologies [Thermo Fisher Scientific]) and DAPI at room temperature for 1 hour. Cells were then washed 3 times with PBS and plates were sealed for imaging. αSMA staining was imaged by excitation at 630 nm and emission at 665 nm and quantified using the Compartmental Analysis program on the CellInsight CX5 (Thermo Scientific). Dead or apoptotic cells were excluded from analysis based on positive SYTOX green staining. % of total cells positive for αSMA were counted in each well and normalized to the average of 11 wells treated with TGF-β1 on the same plate using Dotmatics' Studies Software. The normalized averages (fold change over untreated) of 3 replicate wells for each compound concentration were used to create dose-responses curves and EC50 values were calculated using non-linear regression curve fit in the Dotmatics' Studies Software. For EC50 of >10 μM, the percent inhibition at 10 μM is provided.

SW480 colon cancer cells = test: Cell viability assay (CellTiter-Blue), SW480 colon cancer cells; details: Homo sapiens, 96 h, four days, CellTiter-Blue
Protocol: Representative compounds were screened using the following assay procedure to assess the effect on cell viability as described below.
Each compound was dissolved in DMSO as a 10 mM stock and used to prepare compound source plates. Serial dilution (1:3, 8-point dose-response curves from 10 μM to 0.0045 μM) and compound transfer was performed using the ECHO 550 (Labcyte, Sunnyvale, Calif.) into 96-well clear bottom, black-walled plates (Corning—Costar).
Approximately 2×10^3 SW480 colon cancer cells were seeded into each well and allowed to incubate in the presence or absence of compound for four days at 37° C./5% CO2. Eight replicates of DMSO-treated cells served as controls and cells treated with compound were performed in duplicate.
After incubation, 20 μL of CellTiter-Blue (Promega) was added to each well allowed to incubate for approximately 3 hours. This reagent was a buffered solution which contains resazurin, metabolically active cells were able to reduce rezarurin (blue) into resorufin (pink) which was highly fluorescent. This measured fluorescence was used as a readout for cell viability.
After incubation, the plates were read at Ex 560 nm Em 590 nm (Cytation 3, BioTek). Dose-response curves were generated and EC50 concentration values were calculated using non-linear regression curve fit in the GraphPad Prism (San Diego, Calif.) or Dotmatics' Studies Software (Bishops Stortford, UK). For EC50 of >10 μM, the percent inhibition at 10 μM is provided.

[2] = system: Wnt activity (Sp5-Luc reporter, SW480 colon carcinoma cells); test: Wnt activity screening assay: Sp5-Luc reporter gene in SW480 colon carcinoma cells; details: Homo sapiens; for inhibition at 10 µM: given where EC50 >10 μM, read-out: percent inhibition at 10 μM; for EC50: overnight incubation, 10-point curve from 10 μM
Source text: The screening assay for Wnt activity is described as follows. Reporter cell lines can be generated by stably transducing cancer cell lines (e.g., colon cancer) or primary cells (e.g., IEC-6 intestinal cells) with a lentiviral construct that includes a Wnt-responsive promoter driving expression of the firefly luciferase gene.
SW480 colon carcinoma cells were transduced with a lentiviral vector expressing luciferase with a human Sp5 promoter consisting of a sequence of eight TCF/LEF binding sites. SW480 cells stably expressing the Sp5-Luc reporter gene and a hygromycin resistance gene were selected by treatment with 150 μg/mL of hygromycin for 7 days. These stably transduced SW480 cells were expanded in cell culture and used for all further screening activities. Each compound was dissolved in DMSO as a 10 mM stock and used to prepare compound source plates. Serial dilution (1:3, 10-point dose-response curves starting from 10 μM) and compound transfer was performed using the ECHO 550 (Labcyte, Sunnyvale, Calif.) into 384-well white solid bottom assay plates (Greiner Bio-One) with appropriate DMSO backfill for a final DMSO concentration of 0.1%. For Sp5-Luc reporter gene assays, the cells were plated at 4,000 cells/well in 384-well plates with medium containing 1% fetal bovine serum and incubated overnight at 37° C. and 5% CO2. Following incubation, 20 μl of BrightGlo luminescence reagent (Promega) was added to each well of the 384-well assay plates. The plates were placed on an orbital shaker for 2 min and then luminescence was quantified using the Envision (Perkin Elmer) plate reader. Readings were normalized to DMSO only treated cells, and normalized activities were utilized for EC50 calculations using the dose-response log (inhibitor) vs. response-variable slope (four parameters) nonlinear regression feature available in GraphPad Prism 5.0 (or Dotmatics). For EC50 of >10 μM, the percent inhibition at 10 μM is provided.

| EC50 (IL-6 (THP-1 cells)) [nM] | EC50 (SW480 colon cancer cells) [nM] | EC50 [2] [nM] | SMILES | EC50 [1] [nM] | inhibition at 10 µM [2] [%] |
| --- | --- | --- | --- | --- | --- |
| 261 | 1060 | 292 | CC(C)(C)CC(=O)Nc1cncc(-c2ccc3[nH]nc(-c4cc5c(-c6cc(F)cc(CNS(C)(=O)=O)c6)cccc5[nH]4)c3n2)c1 [Compound 492, N-(5-(3-(4-(3-Fluoro-5-(methylsulfonamidomethyl)phenyl)-1H-indol-2-yl)-1H-pyrazolo[4,3-b]pyridin-5-yl)pyridin-3-yl)-3,3-dimethylbutanamide] | 345 | – |
| 106 | 827 | 306 | CS(=O)(=O)NCc1cc(F)cc(-c2cccc3[nH]c(-c4n[nH]c5ccc(-c6cncc(NC(=O)C7CCCC7)c6)nc45)cc23)c1 [Compound 498, N-(5-(3-(4-(3-Fluoro-5-(methylsulfonamidomethyl)phenyl)-1H-indol-2-yl)-1H-pyrazolo[4,3-b]pyridin-5-yl)pyridin-3-yl)cyclopentanecarboxamide] | 403 | – |
| 298 | 693 | 196 | CS(=O)(=O)NCc1cc(F)cc(-c2cccc3[nH]c(-c4n[nH]c5ccc(-c6cncc(CN7CCC(F)(F)C7)c6)nc45)cc23)c1 [Compound 502, N-(3-(2-(5-(5-((3,3-Difluoropyrrolidin-1-yl)methyl)pyridin-3-yl)-1H-pyrazolo[4,3-b]pyridin-3-yl)-1H-indol-4-yl)-5-fluorobenzyl)methanesulfonamide] | 148 | – |

Continued, compound first:

| SMILES | EC50 (IL-6 (THP-1 cells)) [nM] | EC50 (SW480 colon cancer cells) [nM] | EC50 [2] [nM] | EC50 [1] [nM] | inhibition at 10 µM [2] [%] |
| --- | --- | --- | --- | --- | --- |
| CN1CCN(c2cccc3[nH]c(-c4n[nH]c5ccc(-c6cncc(CN7CCCCC7)c6)nc45)cc23)CC1 [Compound 239, 3-(4-(4-Methylpiperazin-1l-yl)-1H-indol-2-yl)-5-(5-(piperidin-1-ylmethyl)pyridin-3-yl)-1H-pyrazolo[4,3-b]pyridine] | 1190 | 9360 | > 10000 | 4980 | 5 |
| CN1CCN(c2cccc3[nH]c(-c4n[nH]c5ccc(-c6cncc(NC(=O)CC(C)(C)C)c6)nc45)cc23)CC1 [Compound 240, 3,3-Dimethyl-N-(5-(3-(4-(4-methylpiperazin-1-yl)-1H-indol-2-yl)-1H-pyrazolo[4,3-b]pyridin-5-yl)pyridin-3-yl)butanamide] | 244 | 1840 | 2980 | 1750 | – |
| Cc1ccncc1-c1ccc2[nH]nc(-c3cc4ccccc4[nH]3)c2n1 [Compound 257, 3-(1H-Indol-2-yl)-5-(4-methylpyridin-3-yl)-1H-pyrazolo[4,3-b]pyridine] | 17 | 8060 | 3690 | 4640 | – |
| O=C(Nc1cncc(-c2ccc3[nH]nc(-c4cc5c(-c6cccs6)cccc5[nH]4)c3n2)c1)c1ccccc1 [Compound 347, N-(5-(3-(4-(Thiophen-2-yl)-1H-indol-2-yl)-1H-pyrazolo[4,3-b]pyridin-5-yl)pyridin-3-yl)benzamide] | 1070 | 6080 | > 10000 | 446 | 35.8 |
| CN(C)Cc1cncc(-c2ccc3[nH]nc(-c4cc5c(-c6cccs6)cccc5[nH]4)c3n2)c1 [Compound 349, N,N-Dimethyl-1-(5-(3-(4-(thiophen-2-yl)-1H-indol-2-yl)-1H-pyrazolo[4,3-b]pyridin-5-yl)pyridin-3-yl)methanamine] | 137 | 2840 | 8280 | 1270 | – |
| c1csc(-c2cccc3[nH]c(-c4n[nH]c5ccc(-c6ccncc6)nc45)cc23)c1 [Compound 354, 5-(Pyridin-4-yl)-3-(4-(thiophen-2-yl)-1H-indol-2-yl)-1H-pyrazolo[4,3-b] pyridine] | 1420 | 4120 | 3600 | 1460 | – |
| CN(C)CCNc1cc(F)cc(-c2cccc3[nH]c(-c4n[nH]c5ccc(-c6cncc(NC(=O)Cc7ccccc7)c6)nc45)cc23)c1 [Compound 458, N-(5-(3-(4-(3-((2-(Dimethylamino)ethyl)amino)-5-fluorophenyl)-1H-indol-2-yl)-1H-pyrazolo[4,3-b]pyridin-5-yl)pyridin-3-yl)-2-phenylacetamide] | 1460 | 970 | 1030 | 1860 | – |
